Measured values reported in patent publication US20130116241A1, “NOVEL INHIBITOR COMPOUNDS OF PHOSPHODIESTERASE TYPE 10A” (AbbVie Inc., priority 2011, published 2013).

target: human PDE10A (UniProt Q9Y233); test: Measurement of PDE activity (recombinant enzyme, HTRF cAMP kit); type: biochemical; details: Table 1, substrate 20 nM for PDE10, 60 minutes at 29 C, read-out: IC50
Experimental: The recombinant PDE proteins are used in in vitro enzymatic reaction for measurement of PDE activity. These recombinant proteins, including PDE10A (human, rat and mouse PDE10) and isoforms of PDEs 1, 3, 4, and 5, were purchased from commercial vendor BPS Bioscience. The enzymatic activity of PDEs was determined by cAMP measurement kit from CisBio (IBA) using HTRF technology.
The PDE enzymatic reaction was carried out in assay buffer (20 mM Tris-HCl pH7.5, 10 mM MgCl2, 0.1% bovine serum albumin) containing enzyme and substrate. The PDE enzymes concentration ranged from 10 pM-250 pM, depending on each enzyme's specific activity. The substrate cyclic nucleotide (cAMP or cGMP) concentration used in the assay was 20 nM for PDE10, and 100 nM for other PDEs. The inhibitory effect of compound was determined by incubating various concentration of inhibitor in the enzymatic assay. Typically, compound was serial diluted in DMSO then further diluted in assay buffer. Next, the compound at varying concentration was mixed with PDE enzyme. The reaction was initiated by addition of cyclic nucleotide substrate, and incubated for 60 minutes at 29 C. The reaction was stopped by addition of lysis buffer from assay kit. The cAMP-d2 and anti-cAMP cryptate in the lysis buffer detected the level of cAMP left from the PDE hydrolysis reaction. The PDE activity is reversely correlated with the amount of cAMP left in the reaction and can be converted to the percent activity of an uninhibited control (100%). Thus, IC50 value of inhibitor can be obtained by plotting inhibitor concentration against PDE activity at that concentration.

human PDE10A, sequence (Q9Y233 290-1055 limits assumed): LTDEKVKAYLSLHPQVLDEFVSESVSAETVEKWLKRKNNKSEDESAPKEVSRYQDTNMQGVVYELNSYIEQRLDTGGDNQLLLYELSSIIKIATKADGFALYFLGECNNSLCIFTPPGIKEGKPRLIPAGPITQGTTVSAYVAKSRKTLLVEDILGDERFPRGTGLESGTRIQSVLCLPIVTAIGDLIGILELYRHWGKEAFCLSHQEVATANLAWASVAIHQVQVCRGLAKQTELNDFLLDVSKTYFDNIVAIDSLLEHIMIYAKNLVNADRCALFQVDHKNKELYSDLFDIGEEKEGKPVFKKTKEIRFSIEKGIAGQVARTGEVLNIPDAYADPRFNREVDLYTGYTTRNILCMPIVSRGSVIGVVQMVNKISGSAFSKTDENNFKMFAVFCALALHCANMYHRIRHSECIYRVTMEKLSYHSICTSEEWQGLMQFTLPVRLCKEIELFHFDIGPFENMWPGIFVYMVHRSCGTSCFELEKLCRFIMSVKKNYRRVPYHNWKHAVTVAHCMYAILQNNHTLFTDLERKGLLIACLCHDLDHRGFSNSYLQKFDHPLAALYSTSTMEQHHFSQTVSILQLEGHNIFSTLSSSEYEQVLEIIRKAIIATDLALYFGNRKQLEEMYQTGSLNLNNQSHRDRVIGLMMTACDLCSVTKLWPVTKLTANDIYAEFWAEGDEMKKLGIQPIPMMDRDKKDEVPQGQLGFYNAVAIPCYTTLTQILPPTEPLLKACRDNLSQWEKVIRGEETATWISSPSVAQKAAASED

Structure (SMILES)	IC50 [nM]
O=c1c2c(-c3cccc4cnccc34)csc2cnn1CCc1ccc2ccccc2n1 [Example 44, 3-(isoquinolin-5-yl)-5-[2-(quinolin-2-yl)ethyl]thieno[2,3-d]pyridazin-4(5H)-one]	200 to 500
O=c1c2c(-c3cccc4ncccc34)csc2cnn1CCc1ccc2ccccc2n1 [Example 47, 3-(quinolin-5-yl)-5-[2-(quinolin-2-yl)ethyl]thieno[2,3-d]pyridazin-4(5H)-one]	100 to 200
Cc1noc(C)c1-c1csc2cnn(CCc3ccc4ccccc4n3)c(=O)c12 [Example 48, 3-(3,5-dimethyl-1,2-oxazol-4-yl)-5-[2-(quinolin-2-yl)ethyl]thieno[2,3-d]pyridazin-4(5H)-one]	< 100
O=c1c2c(-c3ccc4c(c3)OCCO4)csc2cnn1CCc1ccc2ccccc2n1 [Example 50, 3-(2,3-dihydro-1,4-benzodioxin-6-yl)-5-[2-(quinolin-2-yl)ethyl]thieno[2,3-d]pyridazin-4(5H)-one]	200 to 500
COc1cncc(-c2csc3cnn(CCc4ccc5ccccc5n4)c(=O)c23)c1 [Example 52, 3-(5-methoxypyridin-3-yl)-5-[2-(quinolin-2-yl)ethyl]thieno[2,3-d]pyridazin-4(5H)-one]	100 to 200
O=c1c2c(-c3ccc4c(c3)OCO4)csc2cnn1CCc1ccc2ccccc2n1 [Example 54, 3-(1,3-benzodioxol-5-yl)-5-[2-(quinolin-2-yl)ethyl]thieno[2,3-d]pyridazin-4(5H)-one]	100 to 200
O=c1c2c(-c3ccc4ncccc4c3)csc2cnn1CCc1ccc2ccccc2n1 [Example 55, 3-(quinolin-6-yl)-5-[2-(quinolin-2-yl)ethyl]thieno[2,3-d]pyridazin-4(5H)-one]	< 100
Cn1cc(-c2csc3cnn(CCc4ccc5ccccc5n4)c(=O)c23)cn1 [Example 56, 3-(1-methyl-1H-pyrazol-4-yl)-5-[2-(quinolin-2-yl)ethyl]thieno[2,3-d]pyridazin-4(5H)-one]	< 100
CC(C)Cn1cc(-c2csc3cnn(CCc4ccc5ccccc5n4)c(=O)c23)cn1 [Example 57, 3-[1-(2-methylpropyl)-1H-pyrazol-4-yl]-5-[2-(quinolin-2-yl)ethyl]thieno[2,3-d]pyridazin-4(5H)-one]	200 to 500
COc1ncc(-c2csc3cnn(CCc4ccc5ccccc5n4)c(=O)c23)cn1 [Example 59, 3-(2-methoxypyrimidin-5-yl)-5-[2-(quinolin-2-yl)ethyl]thieno[2,3-d]pyridazin-4(5H)-one]	< 100
O=c1c2c(-c3ccc4[nH]ncc4c3)csc2cnn1CCc1ccc2ccccc2n1 [Example 87, 3-(1H-indazol-5-yl)-5-[2-(quinolin-2-yl)ethyl]thieno[2,3-d]pyridazin-4(5H)-one]	< 100
O=c1c2c(-c3ccncc3)csc2cnn1CCc1ccc2cc(F)ccc2n1 [Example 93, 5-[2-(6-Fluoroquinolin-2-yl)ethyl]-3-(pyridin-4-yl)thieno[2,3-d]pyridazin-4(5H)-one]	< 100
O=c1c2c(-c3ccncc3)csc2cnn1CC(F)(F)c1ccc2ccccc2n1 [Example 94, 5-[2,2-Difluoro-2-(quinolin-2-yl)ethyl]-3-(pyridin-4-yl)thieno[2,3-d]pyridazin-4(5H)-one]	< 100
O=c1c2c(-c3ccncc3)csc2cnn1CCc1ccc2sccc2n1 [Example 95, 3-(Pyridin-4-yl)-5-[2-(thieno[3,2-b]pyridin-5-yl)ethyl]thieno[2,3-d]pyridazin-4(5H)-one]	< 100
O=c1c2c(-c3ccncc3)csc2cnn1CCc1cn2ccccc2n1 [Example 96, 5-[2-(Imidazo[1,2-a]pyridin-2-yl)ethyl]-3-(pyridin-4-yl)thieno[2,3-d]pyridazin-4(5H)-one]	< 100
O=c1c2c(-c3ccncc3)csc2cnn1CCc1cn2ccc(F)cc2n1 [Example 97, 5-[2-(7-Fluoroimidazo[1,2-a]pyridin-2-yl)ethyl]-3-(pyridin-4-yl)thieno[2,3-d]pyridazin-4(5H)-one]	< 100
O=c1c2c(-c3ccncc3)cccc2cnn1CCc1ccc2ccccc2n1 [Example 98, 8-(Pyridin-4-yl)-2-[2-(quinolin-2-yl)ethyl]phthalazin-1(2H)-one]	< 100
Cc1ccc(-c2cccc3cnn(CCc4ccc5ccccc5n4)c(=O)c23)cc1 [Example 100, 8-(4-Methylphenyl)-2-[2-(quinolin-2-yl)ethyl]phthalazin-1(2H)-one]	200 to 500

The next lines start with the values.

IC50 [nM]	Structure (SMILES)
100 to 200	O=c1c2c(-c3cccc4[nH]ccc34)csc2cnn1CCc1ccc2ccccc2n1 [Example 45, 3-(1H-indol-4-yl)-5-(2-quinolin-2-yl-ethyl)-5H-thieno[2,3-d]pyridazin-4-one]
< 100	O=c1c2c(-c3ccc4c(c3)CCO4)csc2cnn1CCc1ccc2ccccc2n1 [Example 46, 3-(2,3-dihydrobenzofuran-5-yl)-5-(2-quinolin-2-yl-ethyl)-5H-thieno[2,3-d]pyridazin-4-one]
100 to 200	COc1ccc(-c2csc3cnn(CCc4ccc5ccccc5n4)c(=O)c23)cn1 [Example 49, 3-(6-methoxypyridin-3-yl)-5-[2-(quinolin-2-yl)ethyl]thieno[2,3-d]pyridazin-4(5H)-one]
< 100	Cc1cc(-c2csc3cnn(CCc4ccc5ccccc5n4)c(=O)c23)ccn1 [Example 51, 3-(2-methylpyridin-4-yl)-5-[2-(quinolin-2-yl)ethyl]thieno[2,3-d]pyridazin-4(5H)-one]
200 to 500	O=c1c2c(-c3ccc(F)c(F)c3F)csc2cnn1CCc1ccc2ccccc2n1 [Example 60, 5-[2-(quinolin-2-yl)ethyl]-3-(2,3,4-trifluorophenyl)thieno[2,3-d]pyridazin-4(5H)-one]
200 to 500	Cc1cc(F)ccc1-c1csc2cnn(CCc3ccc4ccccc4n3)c(=O)c12 [Example 62, 3-(4-fluoro-2-methylphenyl)-5-[2-(quinolin-2-yl)ethyl]thieno[2,3-d]pyridazin-4(5H)-one]
200 to 500	O=c1c2c(-c3ccc(F)cc3Cl)csc2cnn1CCc1ccc2ccccc2n1 [Example 64, 3-(2-chloro-4-fluorophenyl)-5-[2-(quinolin-2-yl)ethyl]thieno[2,3-d]pyridazin-4(5H)-one]
100 to 200	O=c1c2c(-c3ccc(F)cc3F)csc2cnn1CCc1ccc2ccccc2n1 [Example 67, 3-(2,4-difluorophenyl)-5-[2-(quinolin-2-yl)ethyl]thieno[2,3-d]pyridazin-4(5H)-one]
100 to 200	O=c1c2c(-c3cccc(F)c3F)csc2cnn1CCc1ccc2ccccc2n1 [Example 70, 3-(2,3-difluorophenyl)-5-[2-(quinolin-2-yl)ethyl]thieno[2,3-d]pyridazin-4(5H)-one]
200 to 500	COc1ccc(-c2csc3cnn(CCc4ccc5ccccc5n4)c(=O)c23)cc1OC [Example 71, 3-(3,4-dimethoxyphenyl)-5-[2-(quinolin-2-yl)ethyl]thieno[2,3-d]pyridazin-4(5H)-one]
100 to 200	O=c1c2c(-c3ccc(F)c(F)c3)csc2cnn1CCc1ccc2ccccc2n1 [Example 72, 3-(3,4-difluorophenyl)-5-[2-(quinolin-2-yl)ethyl]thieno[2,3-d]pyridazin-4(5H)-one]
100 to 200	O=c1c2c(-c3cc(F)ccc3F)csc2cnn1CCc1ccc2ccccc2n1 [Example 76, 3-(2,5-difluorophenyl)-5-[2-(quinolin-2-yl)ethyl]thieno[2,3-d]pyridazin-4(5H)-one]
200 to 500	COc1ccc(-c2csc3cnn(CCc4ccc5ccccc5n4)c(=O)c23)cc1F [Example 78, 3-(3-fluoro-4-methoxyphenyl)-5-[2-(quinolin-2-yl)ethyl]thieno[2,3-d]pyridazin-4(5H)-one]
200 to 500	COc1cccc(-c2csc3cnn(CCc4ccc5ccccc5n4)c(=O)c23)c1F [Example 79, 3-(2-fluoro-3-methoxyphenyl)-5-[2-(quinolin-2-yl)ethyl]thieno[2,3-d]pyridazin-4(5H)-one]
100 to 200	O=c1c2c(-c3cc(F)cc(F)c3)csc2cnn1CCc1ccc2ccccc2n1 [Example 80, 3-(3,5-difluorophenyl)-5-[2-(quinolin-2-yl)ethyl]thieno[2,3-d]pyridazin-4(5H)-one]
100 to 200	O=c1c2c(-c3ccccc3)csc2cnn1CCc1ccc2ccccc2n1 [Example 85, 3-phenyl-5-[2-(quinolin-2-yl)ethyl]thieno[2,3-d]pyridazin-4(5H)-one]
< 100	Cn1nccc1-c1csc2cnn(CCc3ccc4ccccc4n3)c(=O)c12 [Example 88, 3-(1-methyl-1H-pyrazol-5-yl)-5-[2-(quinolin-2-yl)ethyl]thieno[2,3-d]pyridazin-4(5H)-one]
200 to 500	Cc1ccc(-c2csc3cnn(CCc4ccc5ccccc5n4)c(=O)c23)c(F)c1 [Example 90, 3-(2-fluoro-4-methylphenyl)-5-[2-(quinolin-2-yl)ethyl]thieno[2,3-d]pyridazin-4(5H)-one]
100 to 200	COc1ccc(F)c(-c2csc3cnn(CCc4ccc5ccccc5n4)c(=O)c23)c1 [Example 91, 3-(2-fluoro-5-methoxyphenyl)-5-[2-(quinolin-2-yl)ethyl]thieno[2,3-d]pyridazin-4(5H)-one]
